Common to all, as to assay: KINOMEscan
Type in all cases: binding

The target of one test is T1, ACVR1B (Homo sapiens, UniProt P36896).
T1 construct: purchased Eurofins DiscoverX KINOMEscan
T1 sequence (P36896 24-505): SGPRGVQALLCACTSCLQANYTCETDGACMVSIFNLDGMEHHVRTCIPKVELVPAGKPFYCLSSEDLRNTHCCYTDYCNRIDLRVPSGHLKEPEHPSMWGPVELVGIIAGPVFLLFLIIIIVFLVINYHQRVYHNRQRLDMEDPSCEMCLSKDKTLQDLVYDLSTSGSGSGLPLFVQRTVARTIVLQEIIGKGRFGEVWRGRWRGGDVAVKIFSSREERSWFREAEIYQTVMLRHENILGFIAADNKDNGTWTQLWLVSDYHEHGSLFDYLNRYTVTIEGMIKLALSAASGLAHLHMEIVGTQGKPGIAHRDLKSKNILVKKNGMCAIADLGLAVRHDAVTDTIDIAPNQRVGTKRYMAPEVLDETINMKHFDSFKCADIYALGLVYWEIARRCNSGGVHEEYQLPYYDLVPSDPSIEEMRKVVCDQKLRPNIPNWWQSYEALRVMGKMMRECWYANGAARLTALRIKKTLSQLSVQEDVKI
Particulars: read-out: % control activity remaining.

Another test addresses T2, CSNK1D (Homo sapiens, UniProt P48730).
T2 construct: purchased Eurofins DiscoverX KINOMEscan
Particulars: read-out: % control activity remaining.

The target of another test is T3, DAPK2 (Homo sapiens, UniProt Q9UIK4).
T3 construct: purchased Eurofins DiscoverX KINOMEscan
Particulars: read-out: % control activity remaining.

Another test deals with T4, DDR2 (Homo sapiens, UniProt Q16832).
T4 construct: purchased Eurofins DiscoverX KINOMEscan
T4 sequence (Q16832 22-855): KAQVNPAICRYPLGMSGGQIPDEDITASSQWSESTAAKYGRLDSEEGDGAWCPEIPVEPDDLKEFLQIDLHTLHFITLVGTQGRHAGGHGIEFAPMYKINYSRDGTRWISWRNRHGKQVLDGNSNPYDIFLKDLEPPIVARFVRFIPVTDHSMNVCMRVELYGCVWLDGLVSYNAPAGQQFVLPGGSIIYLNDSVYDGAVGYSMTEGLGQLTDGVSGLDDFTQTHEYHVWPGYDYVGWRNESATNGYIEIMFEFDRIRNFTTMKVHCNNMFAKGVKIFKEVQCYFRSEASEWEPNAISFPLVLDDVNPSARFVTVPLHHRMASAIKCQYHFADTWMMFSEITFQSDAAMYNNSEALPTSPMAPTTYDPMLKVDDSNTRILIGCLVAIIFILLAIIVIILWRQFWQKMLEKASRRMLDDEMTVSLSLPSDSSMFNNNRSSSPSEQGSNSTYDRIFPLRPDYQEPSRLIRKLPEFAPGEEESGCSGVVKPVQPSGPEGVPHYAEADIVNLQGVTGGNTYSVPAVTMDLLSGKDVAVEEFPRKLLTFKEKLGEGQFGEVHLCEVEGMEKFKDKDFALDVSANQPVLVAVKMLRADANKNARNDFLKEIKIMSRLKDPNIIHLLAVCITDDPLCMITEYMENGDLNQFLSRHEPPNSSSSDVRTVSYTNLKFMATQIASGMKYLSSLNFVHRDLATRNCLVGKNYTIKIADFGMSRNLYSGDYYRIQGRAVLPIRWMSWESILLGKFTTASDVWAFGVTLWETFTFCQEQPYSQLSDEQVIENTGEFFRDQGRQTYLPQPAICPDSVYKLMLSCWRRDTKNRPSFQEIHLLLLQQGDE
Particulars: read-out: % control activity remaining.

For another test, the target named is T5, EPHA7 (Homo sapiens, UniProt Q15375).
T5 construct: purchased Eurofins DiscoverX KINOMEscan
The settings on record: read-out: % control activity remaining.

A further test concerns the target T6, ERBB4 (Homo sapiens, UniProt Q15303).
T6 construct: purchased Eurofins DiscoverX KINOMEscan
The settings on record: read-out: % control activity remaining.

A further test addresses T7, FGFR1 (Homo sapiens, UniProt P11362).
T7 construct: purchased Eurofins DiscoverX KINOMEscan
Particulars: read-out: % control activity remaining.

The target of another test is T8, FLT3(D835Y) (Homo sapiens, UniProt P36888, D835Y).
T8 construct: purchased Eurofins DiscoverX KINOMEscan
T8 sequence (P36888 27-993 D835Y): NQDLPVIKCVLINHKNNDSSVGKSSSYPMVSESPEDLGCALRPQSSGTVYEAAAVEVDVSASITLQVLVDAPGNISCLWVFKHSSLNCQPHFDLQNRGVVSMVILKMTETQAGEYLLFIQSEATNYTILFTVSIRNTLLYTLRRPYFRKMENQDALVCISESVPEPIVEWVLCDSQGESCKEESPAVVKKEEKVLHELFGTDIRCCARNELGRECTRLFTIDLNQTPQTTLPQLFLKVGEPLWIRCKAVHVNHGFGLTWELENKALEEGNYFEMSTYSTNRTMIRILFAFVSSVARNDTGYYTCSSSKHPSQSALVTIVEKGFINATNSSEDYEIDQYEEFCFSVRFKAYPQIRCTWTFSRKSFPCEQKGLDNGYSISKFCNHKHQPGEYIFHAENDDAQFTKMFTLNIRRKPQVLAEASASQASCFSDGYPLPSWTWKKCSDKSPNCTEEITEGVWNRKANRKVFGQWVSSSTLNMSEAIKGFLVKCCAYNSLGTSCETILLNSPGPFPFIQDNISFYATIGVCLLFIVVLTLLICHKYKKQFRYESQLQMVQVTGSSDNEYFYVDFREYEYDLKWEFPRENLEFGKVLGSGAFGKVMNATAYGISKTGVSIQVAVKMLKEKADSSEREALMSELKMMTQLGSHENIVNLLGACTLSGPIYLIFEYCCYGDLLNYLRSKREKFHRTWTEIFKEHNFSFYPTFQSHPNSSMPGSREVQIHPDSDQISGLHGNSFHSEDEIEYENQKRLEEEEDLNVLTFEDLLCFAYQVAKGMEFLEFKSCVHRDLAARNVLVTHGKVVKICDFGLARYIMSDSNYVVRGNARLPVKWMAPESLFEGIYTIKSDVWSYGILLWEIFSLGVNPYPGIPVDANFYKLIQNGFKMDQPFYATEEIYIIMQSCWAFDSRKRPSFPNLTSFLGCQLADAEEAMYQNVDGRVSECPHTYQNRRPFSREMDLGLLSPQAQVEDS
The settings on record: read-out: % control activity remaining.

Another test concerns the target T9, FLT4 (Homo sapiens, UniProt P35916).
T9 construct: purchased Eurofins DiscoverX KINOMEscan
Particulars: read-out: % control activity remaining.

The target in another test is T10, MEK1 (Homo sapiens, UniProt Q02750).
T10 construct: purchased Eurofins DiscoverX KINOMEscan
T10 sequence (Q02750 whole entry): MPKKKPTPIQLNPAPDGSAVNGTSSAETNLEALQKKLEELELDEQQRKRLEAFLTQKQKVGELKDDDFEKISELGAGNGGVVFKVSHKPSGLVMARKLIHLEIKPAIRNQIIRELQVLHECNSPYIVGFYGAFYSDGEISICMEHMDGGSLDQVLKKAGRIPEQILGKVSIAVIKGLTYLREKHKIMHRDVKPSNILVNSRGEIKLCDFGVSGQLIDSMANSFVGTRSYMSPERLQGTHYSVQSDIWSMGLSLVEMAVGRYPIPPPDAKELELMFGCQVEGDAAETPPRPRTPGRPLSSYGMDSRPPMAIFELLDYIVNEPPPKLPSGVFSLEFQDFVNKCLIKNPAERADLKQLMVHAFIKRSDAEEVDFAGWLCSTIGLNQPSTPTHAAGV
The settings on record: read-out: % control activity remaining.

For another test, the target named is T11, PAK4 (Homo sapiens, UniProt O96013).
T11 construct: purchased Eurofins DiscoverX KINOMEscan
T11 sequence (O96013 whole entry): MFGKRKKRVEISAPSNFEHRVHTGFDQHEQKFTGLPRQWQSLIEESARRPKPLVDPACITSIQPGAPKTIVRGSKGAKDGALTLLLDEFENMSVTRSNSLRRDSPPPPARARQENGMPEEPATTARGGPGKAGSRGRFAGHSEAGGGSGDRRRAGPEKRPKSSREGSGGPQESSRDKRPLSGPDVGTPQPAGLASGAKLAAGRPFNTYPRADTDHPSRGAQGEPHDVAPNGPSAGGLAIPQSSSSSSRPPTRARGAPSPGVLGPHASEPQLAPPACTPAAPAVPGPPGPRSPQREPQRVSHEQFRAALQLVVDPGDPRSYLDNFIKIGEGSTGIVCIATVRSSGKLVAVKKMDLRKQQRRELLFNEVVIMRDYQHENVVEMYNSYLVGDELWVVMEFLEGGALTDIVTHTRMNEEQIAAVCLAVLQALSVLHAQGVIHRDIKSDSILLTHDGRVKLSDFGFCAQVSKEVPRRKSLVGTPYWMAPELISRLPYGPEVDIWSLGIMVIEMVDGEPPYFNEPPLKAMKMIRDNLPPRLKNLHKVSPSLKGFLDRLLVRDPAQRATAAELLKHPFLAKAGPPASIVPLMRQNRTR
Particulars: read-out: % control activity remaining.

For a further test, the target named is T12, PCTK1 (Homo sapiens, UniProt Q00536).
T12 construct: purchased Eurofins DiscoverX KINOMEscan
T12 sequence (Q00536 whole entry): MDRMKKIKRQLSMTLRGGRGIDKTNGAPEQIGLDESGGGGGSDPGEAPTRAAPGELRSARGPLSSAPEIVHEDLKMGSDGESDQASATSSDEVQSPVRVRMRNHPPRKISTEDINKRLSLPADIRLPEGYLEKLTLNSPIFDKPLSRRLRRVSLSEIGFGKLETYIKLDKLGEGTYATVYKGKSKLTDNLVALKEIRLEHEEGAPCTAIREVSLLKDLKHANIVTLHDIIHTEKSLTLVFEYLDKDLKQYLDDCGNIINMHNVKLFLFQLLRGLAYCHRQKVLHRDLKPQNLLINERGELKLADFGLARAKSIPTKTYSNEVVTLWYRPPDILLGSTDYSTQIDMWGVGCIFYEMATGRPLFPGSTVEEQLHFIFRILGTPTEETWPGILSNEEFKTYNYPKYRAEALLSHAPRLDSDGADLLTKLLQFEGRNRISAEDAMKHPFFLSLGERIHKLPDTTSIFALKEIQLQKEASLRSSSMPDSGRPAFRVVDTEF
The settings on record: read-out: % control activity remaining.

The next test addresses T13, PIK4CB (Homo sapiens, UniProt Q9UBF8).
T13 construct: purchased Eurofins DiscoverX KINOMEscan
Particulars: for remaining binding at 1 µM: read-out: % control activity remaining.

For a further test, the target named is T14, PKAC-alpha (Homo sapiens, UniProt P17612).
T14 construct: purchased Eurofins DiscoverX KINOMEscan
Particulars: read-out: % control activity remaining.

T2 sequence (P48730 whole entry): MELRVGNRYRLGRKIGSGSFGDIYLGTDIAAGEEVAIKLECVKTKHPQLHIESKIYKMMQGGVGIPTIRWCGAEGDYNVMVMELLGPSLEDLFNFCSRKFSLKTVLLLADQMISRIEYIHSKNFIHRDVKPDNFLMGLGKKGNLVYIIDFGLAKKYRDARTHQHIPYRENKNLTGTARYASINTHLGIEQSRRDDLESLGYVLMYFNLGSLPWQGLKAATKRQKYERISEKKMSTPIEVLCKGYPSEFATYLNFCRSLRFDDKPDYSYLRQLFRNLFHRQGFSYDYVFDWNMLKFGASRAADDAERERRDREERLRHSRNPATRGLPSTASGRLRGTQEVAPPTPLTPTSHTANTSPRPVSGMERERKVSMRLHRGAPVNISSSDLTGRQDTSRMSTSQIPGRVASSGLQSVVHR
T13 sequence (Q9UBF8 whole entry): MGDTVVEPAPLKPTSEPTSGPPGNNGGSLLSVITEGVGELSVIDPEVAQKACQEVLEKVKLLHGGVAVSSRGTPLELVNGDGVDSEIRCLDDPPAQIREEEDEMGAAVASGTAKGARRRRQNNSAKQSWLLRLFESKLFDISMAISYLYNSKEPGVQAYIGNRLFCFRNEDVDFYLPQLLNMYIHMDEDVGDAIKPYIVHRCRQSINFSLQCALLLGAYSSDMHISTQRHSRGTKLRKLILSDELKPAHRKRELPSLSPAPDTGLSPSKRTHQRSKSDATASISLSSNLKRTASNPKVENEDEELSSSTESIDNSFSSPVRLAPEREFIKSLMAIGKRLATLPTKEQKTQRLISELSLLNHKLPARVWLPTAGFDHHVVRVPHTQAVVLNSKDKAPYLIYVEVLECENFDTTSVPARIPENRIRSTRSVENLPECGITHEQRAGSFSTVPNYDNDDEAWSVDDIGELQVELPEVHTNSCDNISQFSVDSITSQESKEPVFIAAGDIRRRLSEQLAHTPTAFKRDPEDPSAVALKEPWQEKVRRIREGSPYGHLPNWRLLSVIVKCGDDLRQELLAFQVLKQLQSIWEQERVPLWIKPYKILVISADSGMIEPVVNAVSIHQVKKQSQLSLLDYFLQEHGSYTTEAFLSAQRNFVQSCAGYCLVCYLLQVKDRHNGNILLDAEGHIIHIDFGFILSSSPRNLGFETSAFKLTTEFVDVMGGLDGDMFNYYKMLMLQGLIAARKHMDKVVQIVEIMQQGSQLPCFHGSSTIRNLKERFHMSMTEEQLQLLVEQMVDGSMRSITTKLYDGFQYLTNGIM
T9 sequence (P35916 25-1363): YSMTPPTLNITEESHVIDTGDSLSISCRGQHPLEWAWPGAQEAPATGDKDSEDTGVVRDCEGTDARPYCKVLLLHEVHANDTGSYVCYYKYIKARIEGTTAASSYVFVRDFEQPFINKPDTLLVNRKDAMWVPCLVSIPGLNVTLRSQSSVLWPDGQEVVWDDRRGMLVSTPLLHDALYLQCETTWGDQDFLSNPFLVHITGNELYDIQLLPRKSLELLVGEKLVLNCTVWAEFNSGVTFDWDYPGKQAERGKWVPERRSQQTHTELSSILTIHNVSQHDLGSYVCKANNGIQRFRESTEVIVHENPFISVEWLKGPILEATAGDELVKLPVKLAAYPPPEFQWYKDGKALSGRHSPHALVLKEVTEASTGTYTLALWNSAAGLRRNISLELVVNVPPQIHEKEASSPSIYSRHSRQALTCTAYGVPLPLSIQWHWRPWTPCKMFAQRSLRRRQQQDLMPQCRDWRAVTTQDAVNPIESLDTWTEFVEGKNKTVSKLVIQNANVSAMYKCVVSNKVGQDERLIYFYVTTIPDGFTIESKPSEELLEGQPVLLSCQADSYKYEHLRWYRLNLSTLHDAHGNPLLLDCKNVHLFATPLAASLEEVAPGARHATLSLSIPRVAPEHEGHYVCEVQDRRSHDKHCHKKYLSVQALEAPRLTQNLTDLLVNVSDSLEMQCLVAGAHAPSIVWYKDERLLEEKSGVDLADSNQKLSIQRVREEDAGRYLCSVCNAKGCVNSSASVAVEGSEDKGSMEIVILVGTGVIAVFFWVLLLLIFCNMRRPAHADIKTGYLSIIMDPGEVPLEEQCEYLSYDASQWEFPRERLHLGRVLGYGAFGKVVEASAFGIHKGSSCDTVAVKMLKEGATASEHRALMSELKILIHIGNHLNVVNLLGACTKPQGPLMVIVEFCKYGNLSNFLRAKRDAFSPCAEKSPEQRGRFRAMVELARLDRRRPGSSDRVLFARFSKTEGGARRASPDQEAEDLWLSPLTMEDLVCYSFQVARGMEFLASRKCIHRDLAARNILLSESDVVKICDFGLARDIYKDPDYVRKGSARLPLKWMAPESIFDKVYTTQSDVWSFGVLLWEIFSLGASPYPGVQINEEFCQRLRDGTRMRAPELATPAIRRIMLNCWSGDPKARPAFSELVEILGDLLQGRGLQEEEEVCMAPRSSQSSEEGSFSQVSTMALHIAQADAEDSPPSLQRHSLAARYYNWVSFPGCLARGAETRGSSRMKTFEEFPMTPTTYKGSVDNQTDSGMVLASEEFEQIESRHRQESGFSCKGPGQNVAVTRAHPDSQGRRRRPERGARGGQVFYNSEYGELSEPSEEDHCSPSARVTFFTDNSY
T7 sequence (P11362 22-822): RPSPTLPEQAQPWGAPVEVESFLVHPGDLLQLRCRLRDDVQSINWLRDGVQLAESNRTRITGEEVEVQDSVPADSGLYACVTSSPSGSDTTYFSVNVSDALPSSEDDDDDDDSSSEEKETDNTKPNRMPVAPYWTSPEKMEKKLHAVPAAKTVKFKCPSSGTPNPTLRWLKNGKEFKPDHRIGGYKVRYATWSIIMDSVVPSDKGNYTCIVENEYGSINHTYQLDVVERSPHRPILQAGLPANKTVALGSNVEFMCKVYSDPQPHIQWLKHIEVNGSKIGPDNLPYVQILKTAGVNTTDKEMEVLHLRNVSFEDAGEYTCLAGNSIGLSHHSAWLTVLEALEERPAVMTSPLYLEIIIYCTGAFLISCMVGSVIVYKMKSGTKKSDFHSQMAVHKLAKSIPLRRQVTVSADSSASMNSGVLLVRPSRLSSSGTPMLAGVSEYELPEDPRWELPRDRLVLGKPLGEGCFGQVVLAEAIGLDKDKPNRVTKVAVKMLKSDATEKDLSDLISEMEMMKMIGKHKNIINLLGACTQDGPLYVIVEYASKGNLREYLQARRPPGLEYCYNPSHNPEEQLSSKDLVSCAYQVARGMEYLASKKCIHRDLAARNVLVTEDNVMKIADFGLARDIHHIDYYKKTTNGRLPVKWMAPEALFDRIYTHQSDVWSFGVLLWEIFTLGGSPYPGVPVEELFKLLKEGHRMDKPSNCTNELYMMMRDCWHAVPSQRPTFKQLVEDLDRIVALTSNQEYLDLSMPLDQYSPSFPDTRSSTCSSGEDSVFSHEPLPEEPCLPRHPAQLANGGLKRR

`Clc1cc(NCC2CC2)c2ncc(-c3ccc4[nH]ncc4c3)n2n1` [compound 2, 6-Chloro-N-(cyclopropylmethyl)-3-(1H-indazol-5-yl)imidazo[1,2-b]pyridazin-8-amine]: the remaining binding at 1 µM at ACVR1B came out at 89%; at CSNK1D, 64%; at DAPK2, 91%; at DDR2 it was 86%; at EPHA7 it was 94%; on ERBB4, 99%. The remaining binding at 1 µM on FGFR1 is 99%; at FLT3(D835Y), 10%; on FLT4, 95%; on MEK1, 95%; at PAK4, 79%; at PCTK1 it was 97%. Further, the remaining binding at 1 µM worked out at 3.3% on PIK4CB and 68% at PKAC-alpha. Besides, at PIK4CB (read-out: Probe binding inhibited), the inhibition at 1 µM is above 90%.
For the compound `O=C(CN1CCOCC1)N[C@H]1CC[C@H](Nc2cc(Cl)nn3c(-c4ccc5[nH]ncc5c4)cnc23)CC1` [compound 26], the remaining binding at 1 µM at ACVR1B came out at 91%; at CSNK1D, 61%; at DAPK2, 69%; at DDR2, 98%; on EPHA7, 97%; on ERBB4 it was 100%. Moreover, the remaining binding at 1 µM is 94% on FGFR1; 17% at FLT3(D835Y); 83% on FLT4; 93% on MEK1; 93% at PAK4; 87% on PCTK1. Also, the remaining binding at 1 µM at PIK4CB came out at 21%; on PKAC-alpha, 100%.
For `CN1CCC(CNc2cc(Cl)nn3c(-c4cc5nc(Nc6ccccc6)[nH]c5cc4F)cnc23)CC1` [compound 31, 6-Chloro-3-(6-fluoro-2-(phenylamino)-1H-benzo[d]imidazol-5-yl)-N-((1-methylpiperidin-4-yl)methyl)imidazo[1,2-b]pyridazin-8-amine], the remaining binding at 1 µM was found to be 100% on ACVR1B; 100% on CSNK1D; 98% at DAPK2; 100% on DDR2; 94% on EPHA7; 100% on ERBB4. Further, the remaining binding at 1 µM on FGFR1 came to 87%; at FLT3(D835Y), 100%; on FLT4 it was 100%; on MEK1, 80%; at PAK4, 86%; at PCTK1 it was 37%. For the same compound, the remaining binding at 1 µM was determined as 73% on PIK4CB and 94% at PKAC-alpha.

The values are drawn from PMC6437697 (Journal of Medicinal Chemistry, 2019).
